Reference: US10912787B2, “Use of N-acetylglucosamine and derivatives thereof to treat muscle disorders” (PUREPHARM INC., priority 2017, dated 2021)
“Also recorded” adds a separate entry of the source.

Tests used:
C2C12 cells [1] = assay: Myogenesis of murine myoblast C2C12 cells (MHC-positive multinucleated myotubes, immunofluorescence); format: cell-based; conditions: for myogenesis (GlcNAc vs glucosamine): C2C12, different doses, FIGS. 4A-4F; for number of multinuclear MHC expressing myotubes: C2C12, differentiation stopped after 72 hours
Experimental: (§1) N-Acetylglucosamine promotes myogenesis of murine myoblasts: Myogenesis of murine myoblast cells, C2C12 cells was induced by replacing the medium from growing medium (DMEM supplemented with 10% fetal calf serum) to DMEM supplemented with 1% horse serum, insulin (10 μg/ml), transferrin (5.5 μg/ml) and selenium (5 ng/ml) in the presence or absence of different doses of N-acetylglucosamine (GlcNAc). This condition induces the differentiation of myoblasts, including the induction of the synthesis of myosine heavy chains (MHC). Then myoblasts start fusing with each other to form myotubes, which are multinucleated. Cells were fixed in 3.8% paraformaldehyde containing phosphate buffered saline (PBS) for 15 min. Then cells were permeabilized by PBS-0.25% Triton X100 for 5 min. After washed with PBS, the cells were incubated with anti-MHC antibody (Clone MF-20, 2.5 μg/ml) in the blocking agents (Vectors laboratories) for an hour, followed by anti-mouse antibody labelled with Alex 488. Then nuclei of the cells were stained with DAPI. Fluorescent images were taken through 20× objectives by using Queorum WaveFX spinning Disc confocal system.
In the condition shown in FIG. 1, the myogenesis was stopped after the differentiation for 72 hours, which was 18 hours after the presence of myotubes became detectable. […] In FIGS. 2A and 2B, the differentiation was stopped at 62 hours. Fields of view (5×5 FOVs) are stitched together and shown here. One FOV is 0.533 mm square. White color is MHC-positive myotube cells.
as §1, with “Glucosamine is a commercially available supplement, which has been claimed to reduce arthritic pain, although there is any scientific evidence to support this claim. It was examined whether glucosamine has any significant effect on the myogenesis.” for “N-Acetylglucosamine promotes myogenesis of murine myoblasts:”, “(GlcNAc) or glucosamine.” for “(GlcNAc).”, “fusing” for “fusing with”, “PBS—0.25%” for “PBS-0.25%”

[2] = test system: Myoblasts derived from a patient of DM1; assay: Myogenesis of myoblasts derived from a patient of myotonic dystrophy 1; format: cell-based, human; conditions: after 120 hours of differentiation, FIG. 3
Experimental: It is known that myogenesis is impaired in myotonic dystrophy 1 (DM1). The therapeutic potential of GlcNAc on this impaired myogenesis was thus tested. Myoblasts derived from a patient of DM1 were grown in DMEM supplemented with 20% fetal calf serum till the density of cells reached to 90% confluency. Then, the differentiation was induced by changing the medium to DMEM supplemented with 1% fetal calf serum, 10 μg/ml insulin, and 100 μg/ml apotransferrin. After 120 hours, cells were fixed and MHC in the cells were visualized by the method described in Example 1.

C2C12 cells [3] = assay: Statin-reduced myogenesis of C2C12 cells with or without Simvastatin; format: cell-based, murine; conditions: C2C12, 44 hours; for myoblast differentiation / myogenesis in the presence of Simvastatin: FIG. 5
Excerpt: It is estimated that 10-15% of individuals who take statins-related compounds develop statin-related muscle adverse effects, ranging from mild myalgia to more severed muscle symptoms while the mechanism of statin-induced myopathy remains undetermined. In vitro myogenesis, statins-related compounds reduce in vitro myogenesis and stable adhesion of myotubes. Thus, it was examined whether GlcNAc treatment has any significant effect on the statin-reduced myogenesis. Myogenesis of murine myoblast cells, C2C12 cells was induced by replacing the medium from growing medium to differentiation medium as above DMEM in the presence or absence of different doses of N-acetylglucosamine (GlcNAc) with or without Simvastatin for 44 hours. Cells were then fixed in 3.8% paraformaldehyde containing phosphate buffered saline (PBS) for 15 min. Then cells were permeabilized by PBS-0.25% Triton X100 for 5 min. After washed with PBS, the cells were incubated with anti-MHC antibody (Clone MF-20, 2.5 μg/ml) in the blocking agents (Vectors laboratories) for an hour, followed by anti-mouse antibody labelled with Alex 488. Then nuclei of the cells were stained with DAPI. Fluorescent images were taken through 20× objectives by using Queorum WaveFX spinning Disc confocal system.

[4] = human, long-term oral administration; cited from earlier work
C2C12 cells [5] = assay: Myogenesis of murine myoblast C2C12 cells (MHC-positive multinucleated myotubes, immunofluorescence); format: cell-based; conditions: FIG. 4

CC(=O)N[C@H]1C(O)O[C@H](CO)[C@@H](O)[C@@H]1O (stereo partly drawn) [GlcNAc, N-acetylglucosamine]
myogenesis (GlcNAc vs glucosamine) (C2C12 cells [1]): Promotes the Myogenesis
myogenesis (GlcNAc vs glucosamine) (C2C12 cells [1]; listed as N-acetylglucosamine): increases the formation of myotubes
number of multinuclear MHC expressing myotubes (C2C12 cells [1]; FIG. 1): increases the number of multinuclear MHC expressing myotubes
number of multinuclear MHC expressing myotubes (C2C12 cells [1]; FIG. 1, listed as N-acetylglucosamine): increase of myogenesis of mouse myoblasts
number, length and width of myotubes (C2C12 cells [1]; C2C12, differentiation stopped at 62 hours, FIGS. 2A and 2B): increased not only the number of multinuclear MHC expressing myotubes but also the length and width of the myotubes
myogenesis of C2C12 cells (C2C12 cells [1]; dose of 0.2 mM, 72 hours, FIG. 1): promotes myogenesis of C2C12 cells
myogenesis of human myoblasts of DM1 [2]: promote the myogenesis of human myoblasts of DM1
myogenesis of human myoblasts of DM1 ([2]; listed as N-acetylglucosamine): increase of the myogenesis of human myoblasts
myoblast differentiation / myogenesis in the presence of Simvastatin (C2C12 cells [3]): renders myoblast appropriate differentiation even in the presence of Simvastatin
myoblast differentiation / myogenesis in the presence of Simvastatin (C2C12 cells [3]; listed as N-acetylglucosamine): restores the myogenesis that is partially impaired by statin
adhesion of myotubes (C2C12 cells [3]; with Simvastatin, preliminary data not shown): stabilizes the adhesion of myotubes
adverse effect [4]: not to have any significant adverse effect

CCC(C)(C)C(=O)O[C@H]1C[C@@H](C)C=C2C=C[C@H](C)[C@H](CC[C@@H]3C[C@@H](O)CC(=O)O3)[C@H]21 [Simvastatin, reference compound]
formation of myotube in the presence of Simvastatin alone (C2C12 cells [3]): the formation of myotube was reduced

N[C@H]1C(O)O[C@H](CO)[C@@H](O)[C@@H]1O (stereo partly drawn) [glucosamine]
myogenesis (GlcNAc vs glucosamine) (C2C12 cells [1]): fails to promote the myogenesis; also recorded: inhibition of myogenesis; also recorded: fails to induce any positive impact on the myogenesis
cell toxicity (C2C12 cells [5]): showed toxicity to the myotubes; also recorded: induce cell toxicity
